Source: patent US20240158438A1, “POLYPEPTIDE COMPOUND AND APPLICATION THEREOF” (CHENGDU SINTANOVO BIOTECHNOLOGY CO., LTD., priority 2021, published 2024)
Starred links: 1 amine or outer side, 2 acyl side, 3 side chain; linkers in the order of their positions; H or OH if unused. Non-standard residues stand in square brackets, D forms with d. Residues, ends and D or L forms follow the SMILES beside them. *: point of attachment. Azetidine3carboxylic = O=C(C1CN([*:1])C1)[*:2]; dBta = N[C@H](Cc1csc2ccccc12)C(=O)O; Ac4c(3-oxa) = NC1(C(=O)O)COC1; X1 = N[C@H]1CCC[C@H]1C(=O)*; dNle = CCCC[C@@H](N)C(=O)O; dAbu = CC[C@@H](N)C(=O)O; Api = NC1(C(=O)O)CCNCC1; dAze = O=C(O)[C@H]1CCN1; Abu = CC[C@H](N)C(=O)O; X3 = NCC1(C(=O)*)CCC1; βAla = NCCC(=O)O

Experiments:
CYP1A2 = CYP1A2 (Homo sapiens (Human), UniProt P05177); assay: in vitro; type: in vitro ADME; conditions: microsomes, 10 min
Protocol: (§1) Human liver microsomes containing cytochrome P450 (0.253 mg/mL protein) were incubated with test compounds (0.05-50 μM), CYPs substrates (10 μM […], 5 μM diclofenac, 30 μM mephenytoin, 5 μM dextromethorphan hydrobromide and 2 μM midazolam) and 1.0 mM NADP at 37° C. for 10 min. Naphthoflavone, sulfaphenazole, N-3-benzylnirvanol, quinidine and ketoconazole were used as reference inhibitors.

GHSR-1a = GHSR-1a (Homo sapiens (Human), UniProt Q92847); assay: Agonistic activity for GHSR-1a, FLIPR calcium assay; type: cell-based; conditions: agonist activity assay, Flp In-CHO-GHSR Stable Pool cells, FLIPR calcium 6 kit; read-out: The activity (IC50) of polypeptide compounds for GHSR-1a
Source text: The use of recombinant expression of GHSR provides several advantages; for example, the receptor can be expressed in a determined cell system, so that it is easier to distinguish between the reactions of the compounds with GHSR and the reactions with other receptors. For example, cell lines such as HEK293, COS7 and CHO that […] can be used to express GHSR, and the same cell lines without expression vectors are used as controls.
The activity of GHSR-1a can be measured using different techniques, for example, by detecting the change in the intracellular conformation of GHSR, the change in G-protein coupling activity, and/or the change in intracellular messengers. Techniques such as measuring intracellular Ca^2+ are preferably used to measure the activity of GHSR-1a. Examples of techniques known in the art that can be used to measure Ca^2+ include the use of FLIPR® calcium ion assay kits, among others. The FLIPR® calcium ion assay kits use a calcium ion sensitive indicator and a masking dye to ensure that a researcher carries out high-sensitivity fluorescent screening for G protein-coupled receptors, ion channels and other calcium ion sensitive targets. This experiment used FLIPR calcium 6 assay kits and FLIPR calcium 6-QF assay kits.
• a) Cell line: Flp In-CHO-GHSR Stable Pool; • b) Complete medium: F12K+10% fetal bovine serum+1×penicillin-streptomycin (PS)+600 μg/mL hygromycin B; • c) Cell seeding medium: F12K+10% fetal bovine serum. • d) Assay buffer: 1× HBSS+20 mM HEPES. • e) […] component A: Assay buffer and component A were left at room temperature (RT), 10 mL of buffer was added to component A, and the mixture was vortexed for 1-2 min and stored at −20° C.
• a) Compound stock solutions: the powders from in-house synthesis were made into 10 mM stock solutions in DMSO according to the standard protocol. • b) Compound storage: all compounds in DMSO were stored in room temperature desiccators for short-term storage (at most 4 months). The remaining compounds were left at −20 ° C. for long-term storage.
• a) Flp In-CHO-GHSR Stable Pool cells were cultured in complete medium. • b) The cells were placed in […] cell seeding medium in a 384-well cell culture plate (Corning, 3764) at 7k cells/well and cultured overnight at 37° C. with 5% CO2. • c) 20× component A was thawed at room temperature, diluted with assay buffer to 2×, and left at RT. • d) The Petri dish was taken out of the incubator and equilibrated at room temperature for 10 min. The medium was changed to […]. After the final wash, 20 μL of buffer was kept in each well, 20 μL of 2× component A was then added to each well, and the plate was incubated at 37° C. for 3-5 s. • e) 10 μL of 5× compound was added to the 384-well cell culture plate, and data collection was immediately performed using FLIPR Tetra.
• 1) Z′ factor=1−3×(SDMax+SDMin)/(MeanMax−MeanMin); • 2) CVMax=(SDMax/MeanMax)×100%; • 3) CVMin=(SDMin/MeanMin)×100%; • 4) S/B=Singal/Background; • 5) Calculation formula for IC50: • Y=Bottom+(Top−Bottom)/(1+10^((LogIC50−X)×HillSlope)) • X: log value of compound concentration; Y: Activation % or Inhibition %

CYP 2C9 = CYP 2C9 (Homo sapiens (Human), UniProt P11712); type: in vitro ADME; conditions: microsomes, 10 min
Protocol: as §1

CYP 2C19 = CYP 2C19 (Homo sapiens (Human), UniProt P33261); type: in vitro ADME; conditions: microsomes, 10 min
Protocol: as §1

CYP 3A4 = CYP 3A4 (Homo sapiens (Human), UniProt P08684); type: in vitro ADME; conditions: microsomes, 10 min
Protocol: as §1

CYP 2D6 = CYP 2D6 (Homo sapiens (Human), UniProt P10635); type: in vitro ADME; conditions: microsomes, 10 min
Protocol: as §1

Chain of CYP 2D6 (P10635 whole entry): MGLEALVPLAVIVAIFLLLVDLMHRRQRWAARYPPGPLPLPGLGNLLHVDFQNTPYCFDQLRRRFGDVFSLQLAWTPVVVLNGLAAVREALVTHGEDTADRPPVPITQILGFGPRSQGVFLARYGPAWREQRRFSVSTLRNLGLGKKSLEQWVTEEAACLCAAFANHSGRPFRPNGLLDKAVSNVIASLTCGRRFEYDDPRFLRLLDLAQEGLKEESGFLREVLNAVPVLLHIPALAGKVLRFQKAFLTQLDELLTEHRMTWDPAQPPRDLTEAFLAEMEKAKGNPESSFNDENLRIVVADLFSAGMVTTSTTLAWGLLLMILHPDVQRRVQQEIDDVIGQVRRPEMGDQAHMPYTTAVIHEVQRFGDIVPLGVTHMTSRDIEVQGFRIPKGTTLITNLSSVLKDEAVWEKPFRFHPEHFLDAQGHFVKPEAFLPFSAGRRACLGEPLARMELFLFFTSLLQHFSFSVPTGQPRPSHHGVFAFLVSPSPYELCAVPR
Chain of CYP 3A4 (P08684 whole entry): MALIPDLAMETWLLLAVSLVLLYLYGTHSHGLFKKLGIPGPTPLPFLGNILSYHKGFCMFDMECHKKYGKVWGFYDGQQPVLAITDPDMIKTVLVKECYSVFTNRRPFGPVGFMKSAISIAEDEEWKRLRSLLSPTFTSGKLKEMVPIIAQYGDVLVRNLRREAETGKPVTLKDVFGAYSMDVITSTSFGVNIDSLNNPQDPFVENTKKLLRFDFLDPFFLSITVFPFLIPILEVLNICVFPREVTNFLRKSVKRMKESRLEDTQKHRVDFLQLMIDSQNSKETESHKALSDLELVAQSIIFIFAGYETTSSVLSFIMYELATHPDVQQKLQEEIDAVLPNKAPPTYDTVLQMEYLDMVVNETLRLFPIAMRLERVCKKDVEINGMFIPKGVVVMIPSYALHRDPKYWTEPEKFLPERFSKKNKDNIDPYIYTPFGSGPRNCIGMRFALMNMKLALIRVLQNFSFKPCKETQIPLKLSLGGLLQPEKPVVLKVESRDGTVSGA
Chain of GHSR-1a (Q92847 whole entry): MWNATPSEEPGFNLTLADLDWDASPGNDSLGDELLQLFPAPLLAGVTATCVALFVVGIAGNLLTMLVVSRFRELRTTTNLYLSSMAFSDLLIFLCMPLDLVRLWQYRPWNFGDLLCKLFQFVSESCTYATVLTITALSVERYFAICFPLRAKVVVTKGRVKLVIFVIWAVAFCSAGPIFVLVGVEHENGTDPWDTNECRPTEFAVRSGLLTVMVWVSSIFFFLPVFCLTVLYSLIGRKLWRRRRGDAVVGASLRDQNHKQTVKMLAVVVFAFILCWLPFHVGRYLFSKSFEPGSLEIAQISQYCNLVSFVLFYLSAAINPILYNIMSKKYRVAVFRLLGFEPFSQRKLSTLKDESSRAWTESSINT
Chain of CYP 2C19 (P33261 whole entry): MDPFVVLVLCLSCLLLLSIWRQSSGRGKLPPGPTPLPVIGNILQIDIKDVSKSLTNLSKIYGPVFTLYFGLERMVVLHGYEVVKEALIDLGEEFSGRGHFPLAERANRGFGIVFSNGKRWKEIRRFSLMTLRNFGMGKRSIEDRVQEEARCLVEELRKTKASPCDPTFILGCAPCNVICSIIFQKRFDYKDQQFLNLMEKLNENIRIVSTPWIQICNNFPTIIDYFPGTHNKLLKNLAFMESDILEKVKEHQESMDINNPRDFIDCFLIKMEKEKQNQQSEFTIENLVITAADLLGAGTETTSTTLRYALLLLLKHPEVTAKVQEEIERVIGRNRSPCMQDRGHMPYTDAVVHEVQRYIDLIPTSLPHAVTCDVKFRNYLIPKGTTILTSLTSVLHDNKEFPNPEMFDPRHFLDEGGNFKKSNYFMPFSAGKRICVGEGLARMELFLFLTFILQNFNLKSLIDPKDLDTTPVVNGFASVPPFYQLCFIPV
Chain of CYP1A2 (P05177 whole entry): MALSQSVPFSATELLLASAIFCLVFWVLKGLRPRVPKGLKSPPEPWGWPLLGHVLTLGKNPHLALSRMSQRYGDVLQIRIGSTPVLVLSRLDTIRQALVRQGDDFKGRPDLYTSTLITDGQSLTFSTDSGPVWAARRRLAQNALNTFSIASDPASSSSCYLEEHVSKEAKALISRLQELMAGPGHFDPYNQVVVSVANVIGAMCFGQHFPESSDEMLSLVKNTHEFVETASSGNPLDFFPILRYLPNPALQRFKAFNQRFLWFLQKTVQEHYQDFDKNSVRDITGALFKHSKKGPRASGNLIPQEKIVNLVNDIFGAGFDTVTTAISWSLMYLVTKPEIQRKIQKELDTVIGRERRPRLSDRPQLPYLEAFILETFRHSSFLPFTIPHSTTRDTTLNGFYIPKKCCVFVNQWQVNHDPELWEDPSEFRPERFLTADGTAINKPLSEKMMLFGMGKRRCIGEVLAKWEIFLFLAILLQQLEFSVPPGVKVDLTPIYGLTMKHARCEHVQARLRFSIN
Chain of CYP 2C9 (P11712 whole entry): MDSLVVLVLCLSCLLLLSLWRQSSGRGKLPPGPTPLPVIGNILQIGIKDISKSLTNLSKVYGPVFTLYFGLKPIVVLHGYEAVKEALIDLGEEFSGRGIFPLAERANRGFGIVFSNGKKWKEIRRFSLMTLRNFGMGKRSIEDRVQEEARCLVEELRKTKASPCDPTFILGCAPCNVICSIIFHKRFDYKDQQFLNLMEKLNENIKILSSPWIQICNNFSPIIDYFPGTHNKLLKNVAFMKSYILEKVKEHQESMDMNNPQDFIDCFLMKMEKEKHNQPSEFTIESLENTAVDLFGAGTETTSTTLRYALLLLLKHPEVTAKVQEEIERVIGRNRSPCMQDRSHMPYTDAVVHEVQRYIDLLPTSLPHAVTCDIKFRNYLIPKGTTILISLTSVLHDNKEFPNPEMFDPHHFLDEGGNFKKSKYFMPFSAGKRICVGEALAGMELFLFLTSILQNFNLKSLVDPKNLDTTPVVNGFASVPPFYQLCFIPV

Compound	IC50 (CYP1A2)	IC50 (GHSR-1a)	IC50 (CYP 2C9)	IC50 (CYP 2C19)	IC50 (CYP 3A4)	IC50 (CYP 2D6)
CC[C@@H](N)C(=O)N[C@H](Cc1csc2ccccc12)C(=O)N[C@H](Cc1c[nH]c2ccccc12)C(=O)N[C@@H](Cc1ccccc1)C(=O)NC1(C(N)=O)CCNCC1 [Compound 2] (H-[dAbu][dBta][dW]F[Api]-NH2)	> 50 µM	0.0035 µM	> 50 µM	> 50 µM	20 µM	> 50 µM
CC[C@H](N)C(=O)N[C@H](Cc1csc2ccccc12)C(=O)N[C@H](Cc1c[nH]c2ccccc12)C(=O)N[C@@H](Cc1ccccc1)C(=O)NC1(C(N)=O)CCNCC1 [Compound 3] (H-[Abu][dBta][dW]F[Api]-NH2)	> 50 µM	0.0172 µM	> 50 µM	> 50 µM	> 50 µM	> 50 µM
NCC(=O)N[C@H](Cc1csc2ccccc12)C(=O)N[C@H](Cc1c[nH]c2ccccc12)C(=O)N[C@@H](Cc1ccccc1)C(=O)NC1(C(N)=O)CCNCC1 [Compound 11] (H-G[dBta][dW]F[Api]-NH2)	> 50 µM	0.0203 µM	> 50 µM	> 50 µM	33.4 µM	> 50 µM
C[C@@H](N)C(=O)N[C@H](Cc1csc2ccccc12)C(=O)N[C@H](Cc1c[nH]c2ccccc12)C(=O)N[C@@H](Cc1ccccc1)C(=O)NC1(C(N)=O)CCNCC1 [Compound 12] (H-[dA][dBta][dW]F[Api]-NH2)	> 50 µM	0.0537 µM	> 50 µM	> 50 µM	> 50 µM	> 50 µM
CC(C)[C@@H](N)C(=O)N[C@H](Cc1csc2ccccc12)C(=O)N[C@H](Cc1c[nH]c2ccccc12)C(=O)N[C@@H](Cc1ccccc1)C(=O)NC1(C(N)=O)CCNCC1 [Compound 13] (H-[dV][dBta][dW]F[Api]-NH2)	> 50 µM	0.0435 µM	> 50 µM	> 50 µM	> 50 µM	> 50 µM
CC(C)C[C@@H](N)C(=O)N[C@H](Cc1csc2ccccc12)C(=O)N[C@H](Cc1c[nH]c2ccccc12)C(=O)N[C@@H](Cc1ccccc1)C(=O)NC1(C(N)=O)CCNCC1 [Compound 14] (H-[dL][dBta][dW]F[Api]-NH2)	> 50 µM	0.0332 µM	> 50 µM	> 50 µM	> 50 µM	> 50 µM
NC(=O)C1(NC(=O)[C@H](Cc2ccccc2)NC(=O)[C@@H](Cc2c[nH]c3ccccc23)NC(=O)[C@@H](Cc2csc3ccccc23)NC(=O)[C@@H]2CCCN2)CCNCC1 [Compound 15] (H-P[dBta][dW]F[Api]-NH2)	> 50 µM	0.0023 µM	> 50 µM	> 50 µM	8.82 µM	31.1 µM
NCCC(=O)N[C@H](Cc1csc2ccccc12)C(=O)N[C@H](Cc1c[nH]c2ccccc12)C(=O)N[C@@H](Cc1ccccc1)C(=O)NC1(C(N)=O)CCNCC1 [Compound 16] (H-[βAla][dBta][dW]F[Api]-NH2)	> 50 µM	0.0007 µM	> 50 µM	> 50 µM	19.8 µM	35.4 µM
NC(=O)C1(NC(=O)[C@H](Cc2ccccc2)NC(=O)[C@@H](Cc2c[nH]c3ccccc23)NC(=O)[C@@H](Cc2csc3ccccc23)NC(=O)[C@@H]2CCC[C@@H]2N)CCNCC1 [Compound 21] (X1-[dBta][dW]F[Api]-NH2)	> 50 µM	0.023 µM	> 50 µM	> 50 µM	> 50 µM	> 50 µM
NCC1(C(=O)N[C@H](Cc2csc3ccccc23)C(=O)N[C@H](Cc2c[nH]c3ccccc23)C(=O)N[C@@H](Cc2ccccc2)C(=O)NC2(C(N)=O)CCNCC2)CCC1 [Compound 22] (X3-[dBta][dW]F[Api]-NH2)	> 50 µM	0.0023 µM	> 50 µM	> 50 µM	> 50 µM	> 50 µM
NC(=O)C1(NC(=O)[C@H](Cc2ccccc2)NC(=O)[C@@H](Cc2c[nH]c3ccccc23)NC(=O)[C@@H](Cc2csc3ccccc23)NC(=O)C2CNC2)CCNCC1 [Compound 23] (Azetidine3carboxylic-[dBta][dW]F[Api]-NH2)	> 50 µM	0.0033 µM	> 50 µM	> 50 µM	> 50 µM	> 50 µM
NC(=O)C1(NC(=O)[C@H](Cc2ccccc2)NC(=O)[C@@H](Cc2c[nH]c3ccccc23)NC(=O)[C@@H](Cc2csc3ccccc23)NC(=O)C2(N)COC2)CCNCC1 [Compound 24] (H-[Ac4c(3-oxa)][dBta][dW]F[Api]-NH2)	> 50 µM	0.0054 µM	> 50 µM	> 50 µM	> 50 µM	> 50 µM
NC(=O)[C@H](Cc1ccccc1)NC(=O)[C@@H](Cc1c[nH]c2ccccc12)NC(=O)[C@@H](Cc1csc2ccccc12)NC(=O)C1CNC1 [Compound 73]	–	0.0159 µM	–	–	–	–
NC(=O)[C@H](Cc1ccccc1)NC(=O)[C@@H](Cc1c[nH]c2ccccc12)NC(=O)[C@@H](Cc1csc2ccccc12)NC(=O)C1(N)COC1 [Compound 74] (H-[Ac4c(3-oxa)][dBta][dW]F-NH2)	–	0.0173 µM	–	–	–	–
NC(=O)[C@H](Cc1ccccc1)NC(=O)[C@@H](Cc1c[nH]c2ccccc12)NC(=O)[C@@H](Cc1csc2ccccc12)NC(=O)[C@H]1CCN1 [Compound 75] (H-[dAze][dBta][dW]F-NH2)	–	0.0124 µM	–	–	–	–
NC(=O)[C@H](Cc1ccccc1)NC(=O)[C@@H](Cc1c[nH]c2ccccc12)NC(=O)[C@@H](Cc1csc2ccccc12)NC(=O)CC12CC3CC(CC(N)(C3)C1)C2 [Compound 78]	–	0.0784 µM	–	–	–	–
NC(=O)[C@H](Cc1ccccc1)NC(=O)[C@@H](Cc1c[nH]c2ccccc12)NC(=O)[C@@H](Cc1csc2ccccc12)NC(=O)C1N[C@@H]2CC[C@H]1C2 (stereo partly drawn) [Compound 79]	–	0.0331 µM	–	–	–	–
CCCC[C@@H](NC(=O)[C@@H](CCCCN)NC(=O)[C@H](Cc1ccccc1)NC(=O)[C@@H](Cc1c[nH]c2ccccc12)NC(=O)[C@@H](Cc1csc2ccccc12)NC(=O)[C@H](N)CC)C(N)=O [Compound 81] (H-[dAbu][dBta][dW]F[dK][dNle]-NH2)	–	0.0072 µM	–	–	–	–
CCCC[C@@H](NC(=O)[C@@H](CCCCN)NC(=O)[C@H](Cc1ccccc1)NC(=O)[C@@H](Cc1c[nH]c2ccccc12)NC(=O)[C@@H](Cc1csc2ccccc12)NC(=O)[C@H](N)CC)C(=O)N[C@H](C)C(N)=O [Compound 82] (H-[dAbu][dBta][dW]F[dK][dNle][dA]-NH2)	–	0.009 µM	–	–	–	–
CCCC[C@@H](NC(=O)C1(NC(=O)[C@H](Cc2ccccc2)NC(=O)[C@@H](Cc2c[nH]c3ccccc23)NC(=O)[C@@H](Cc2csc3ccccc23)NC(=O)[C@H](N)CC)CCNCC1)C(N)=O [Compound 83] (H-[dAbu][dBta][dW]F[Api][dNle]-NH2)	–	0.0122 µM	–	–	–	–
CCCC[C@@H](NC(=O)C1(NC(=O)[C@H](Cc2ccccc2)NC(=O)[C@@H](Cc2c[nH]c3ccccc23)NC(=O)[C@@H](Cc2csc3ccccc23)NC(=O)[C@H](N)CC)CCNCC1)C(=O)N[C@H](C)C(N)=O [Compound 84] (H-[dAbu][dBta][dW]F[Api][dNle][dA]-NH2)	–	0.0067 µM	–	–	–	–
